Earlier results on four molecules are cited in US10113000B2, “Combination therapies for B-cell lymphomas comprising administration of anti-CD20 antibody” (BIOGEN INC., priority 1998, dated 2018).

Series [1] relates to multiple myeloma (MM) patient plasma cells.
For series [2], the system named is mononuclear cells from CLL patients. The following applies: incubated for 24 hours.

On to gamma-interferon: cytokine, for which the “binding of cells to Rituximab” value in series [1] (MM plasma cells, patient B-cells, normal donor B-cells) is given as “augments binding”. For the same molecule, the “concentration at which plateau of CD20 induction occurred” value in series [1] (at 48 hours) is 100 U/ml. Moreover, the “concentration at which CD20 upregulation is seen” value in series [1] (plasma cells, dose dependent) is reported as 1 U/ml.

Take TNF-alpha: the “CD20 expression by flow cytometry” value in series [2] is “significant up-regulation”. With GM-CSF: cytokine, the “CD20 expression by flow cytometry” value in series [2] is recorded as “significant up-regulation”.

B1: IL-4: cytokine (protein, UniProt P05112 25-153, looked up)
Interleukin-4: HKCDITLQEIIKTLNSLTEQKTLCTELTVTDIFAASKNTTEKETFCRAATVLRQFYSHHEKDTRCLGATAQQFHRHKQLIRFLKRLDRNLWGLAGLNSCPVKEANQSTLENFLERLKTIMREKYSKCSS
For the molecule B1, the “CD20 expression by flow cytometry” value in series [2] is “significant up-regulation”.
